Measurements reported in patent US20250082781A1, “METHODS OF LOWERING BLOOD GLUCOSE AND TREATING TYPE 2 DIABETES BY ACTIVATION OF PDE4D3” (Salk Institute for Biological Studies, priority 2021, published 2025).

Tests used:
[1] = system: pyruvate carboxylase; test: Hepatic pyruvate carboxylase (Pcx) activity assay; assay type: in vivo, mouse; conditions: HFD-fed adR1WT mice, FGF1 0.5 mg/kg
Method: Pcx activity was determined by malate dehydrogenase coupling method originally reported by Payne et al. (Payne and Morris, 1969). Briefly, mice were sacrificed by decapitation. Liver samples were rapidly frozen in liquid nitrogen within 5 seconds of excision designed to avoid loss of hepatic acetyl-CoA levels. Frozen liver samples were pulverized on dry ice and approximately 100 mg of tissues were homogenized with TissueLyzer in Pcx activity assay buffer (50 mM Tris pH8, 10 mM MgCl2, 10 mM NaHCO3). Homogenates were cleared by centrifugation at 14000 rpm for 10 minutes. Cleared supernatants were diluted in Pcx activity assay buffer to approximately 1 μg/ul. Approximately 5 μg protein was loaded onto 96-well plates and the total volume was brought up to 20 ul by Pcx activity assay buffer. Absorbance at 340 nm was monitored every 9 seconds at 37° C. immediately after the addition of 80 ul Pcx reaction buffer (50 mM Tris pH8, 10 mM MgCl2, 10 mM NaHCO3, 6.25 mM ATP, 0.125 mM NADH, 2.5 mM pyruvate, malate dehydrogenase 0.025 U/ml in Pcx activity assay buffer). Pcx activity was determined as the loss of absorbance at 340 nm over time normalized to protein concentration.

[2] = system: blood glucose levels; test: Blood glucose levels in DIO mice; assay type: in vivo, mouse; conditions: for blood glucose levels: 0.5 mg/kg FGF1 s.c.
Method: Mice were kept in 12 h light/dark cycle in a temperature-controlled environment. Mice had free access to food and water unless noted otherwise. C57/B6 mice background was used unless noted otherwise. C57BL/6J and ob/ob (000632-B6. Cg-Lepob/J) male mice were obtained from Jackson Laboratory. PDE4D knock-out mice (034588-UCD) were obtained from MMRRC. For diet-induced obesity (DIO) studies, mice were fed a high fat diet (HFD) (60% fat, F3282; Bio-Serv) for minimum of 12 weeks to induce insulin resistance when diet-induced obese model is used. Insulin levels and blood glucose levels were monitored to confirm insulin resistance. To generate adipose-specific FGFR1 deletion, adiponectin-cre mice (B6; FVB-Tg (Adipoq-cre)1Evdr/J; Stock: 010803) were crossed to Fgfr1 flox/flox (B6.129S4-Fgfr1tm5.1Sor/J; Stock: 00767) mice. For AAV mediated expression of target proteins in adipose tissue, 5×10E+11 genomic copies of AAV were injected via tail vein or retro-orbital route.
Recombinant FGF1 (rFGF1) was dissolved in phosphate-buffered saline (PBS) at a concentration of 0.2 mg/ml and was injected subcutaneously at a 0.5 mg kg^−1 dose. Blood glucose was monitored at indicated time points after injection. For initial measurements (2-4 h) food was removed after injection to exclude any indirect effects stemming from anorexigenic effects of FGF1. PDE4 inhibitor roflumilast stock in DMSO was diluted at 1 mg/ml in 30% captisol, pH 10 and delivered to mice thorough oral gavage at 5 mg kg^−1 dose. PDE3 inhibitor cilostamide stock in DMSO was diluted at 2 mg/ml in 30% captisol and delivered through intraperitoneal injection at 10 mg kg^−1 dose.

[3] = system: perilipin-HSL co-localization; test: Perilipin-GFP and HSL-mCherry co-localization in 3T3-L1 adipocytes; assay type: cell-based
Method: 3T3-L1 cells were transduced with viral particles ([…]) in 24 well plates. Media was replaced after overnight incubation. 3-4 days after AAV infection, cells were treated as described for lipolysis assay. For cAMP analysis by biosensors, Downward Green cADDis cAMP Sensor (D0200G) and control mNeon Green (F0500G) produced in BacMam system was purchased from Montana Molecular. Brightfield and fluorescence images were taken every 10-20 min in I IncuCyte® Live-cell analysis system (Sartorius) and images were analyzed by IncuCyte® Analysis Software. High-resolution live cell imaging was performed with LSM 880 Airyscan microscope at 40× objective.

[4] = system: adipose tissue explants; test: Ex vivo lipolysis in adipose explants of treated mice; set-up: species or system mouse
Method: For in vitro lipolysis assay, cells were washed with PBS and media were changed to full growth media 1 day before experiment. Cells were serum starved for 2 h and placed in KRBH buffer (30 mM HEPES, 120 mM NaCl, 4 mM KH2PO4, 1 mM MgSO4, 0.75 mM CaCl2), and 10 mM NaHCO3) with 2% fatty acid free BSA and 5 mM glucose. FGF1 was added 10 min before induction of lipolysis with 100 nM isoprotenol (ISO). Inhibitors were added 30 min prior to FGF1 treatment unless otherwise noted. Media were collected and cells were lysed in protein extraction buffer. FFAs were measured in the media using a commercial kit (Wako-NEFAHR2) and normalized to protein concentration. For ex vivo lipolysis, the assay was modified from a published protocol (Funicello et al., 2007). Briefly, approximately 0.1 gram of adipose tissue was excised, weighed and kept in cold PBS until treatment and control tissues were collected. Tissues were cut into small pieces and incubated in same KRBH buffer as described above for 4 h. FFAs were measured and normalized by the explant weights.

## FGF1: Recombinant fibroblast growth factor 1 protein, dissolved in PBS, injected subcutaneously
[1]
  reduction in pyruvate carboxylase activity: ~50%
[2]; DIO adR1KO mice
  blood glucose levels: failed to affect adR1KO mice
[2]; DIO mice, FGF1 0.5 mg/kg, cilostamide 10 mg/kg
  ability of FGF1 to modulate glucose levels under inhibition of PDE3: failed to affect the ability of FGF1 to modulate glucose levels
[2]; DIO wild type mice (adR1WT)
  blood glucose levels: rapidly decreased blood glucose levels
[2]; HFD-fed PDE4D KO mice, FGF1 0.5 mg/kg
  blood glucose: failed to lower blood glucose
[2]; PDE4D KO DIO mice 4 weeks after adAAV, FGF1 0.5 mg/kg
  FGF1 blood glucose lowering with adAAV-driven expression of PDE4D3 in adipose tissue: restored
[2]; ad lib fed DIO mice, FGF1 0.5 mg/kg, roflumilast 5 mg/kg
  ability of FGF1 to reduce blood glucose levels with roflumilast pretreatment: lost
[3]; FGF1 100 ng/ml pretreatment, ISO 100 nM
  isoproterenol-induced co-localization of perilipin-GFP and HSL-mCherry: reduced the isoproterenol-induced co-localization of perilipin-GFP and HSL-mCherry
[3]; roflumilast 2 μM, PDE3 inhibition did not abrogate
  FGF1 effect on perilipin-HSL co-localization under PDE4 inhibition: abrogated the FGF1 effect
[4]; BAT explants, chow-fed mice, 6 h after FGF1 0.5 mg/kg
  lipolysis in brown adipose tissue: did not affect lipolysis in brown adipose tissue
[4]; DIO mice gavaged with PDE4 inhibitor 1 h prior to FGF1 injection
  FGF1 suppression of lipolysis in adipose explants under PDE4 inhibition: blocked the ability of FGF1 to suppress lipolysis
[4]; gWAT and iWAT explants, DIO adR1WT vs adR1KO, 2 h after FGF1 0.5 mg/kg
  ex vivo lipolysis: suppressed
